Experimental data published in patent publication US11053204B2, “Pyrimidinyloxy benzene derivatives as herbicides” (FMC Corporation, priority 2015, dated 2021).

Assays:
Assay type in all cases: in vivo
[1] = tested on: Italian ryegrass (Lolium multiflorum); experiment: Test A preemergence, visual injury rating; settings: Lolium multiflorum, pre-emergence, 240 h, 0 to 100 scale (0 no effect, 100 complete control), read-out: Ryegrass, Italian plant response rating
Procedure, shortened: (§1)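 Compounds in non-phytotoxic solvent with surfactant applied as soil spray preemergence, or postemergence to plants 2-10 cm at one- to two-leaf stage, in loam/sand. After approximately 10 days in greenhouse, injury rated visually versus untreated controls, 0 (no effect) to 100 (complete control).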

[2] = tested on: barnyardgrass (Echinochloa crus-galli); experiment: Test A preemergence, visual injury rating; settings: Echinochloa crus-galli, pre-emergence, 240 h, 0 to 100 scale (0 no effect, 100 complete control), read-out: Barnyardgrass plant response rating
Procedure, shortened: as §1

[3] = tested on: giant foxtail (Setaria faberii); experiment: Test A preemergence, visual injury rating; settings: Setaria faberi, pre-emergence, 240 h, 0 to 100 scale (0 no effect, 100 complete control), read-out: Foxtail, Giant plant response rating
Procedure, shortened: as §1

kochia (Kochia scoparia) [4] = experiment: Test A preemergence, visual injury rating; settings: Bassia scoparia, pre-emergence, 240 h, 0 to 100 scale (0 no effect, 100 complete control), read-out: Kochia plant response rating
Procedure, shortened: as §1

[5] = tested on: pigweed (Amaranthus retroflexus); experiment: Test A preemergence, visual injury rating; settings: Amaranthus retroflexus, pre-emergence, 240 h, 0 to 100 scale (0 no effect, 100 complete control), read-out: Pigweed plant response rating
Procedure, shortened: as §1

[6] = tested on: ragweed (common ragweed, Ambrosia elatior); experiment: Test A preemergence, visual injury rating; settings: Ambrosia artemisiifolia, pre-emergence, 240 h, 0 to 100 scale (0 no effect, 100 complete control), read-out: Ragweed plant response rating
Procedure, shortened: as §1

[7] = tested on: chickweed (common chickweed, Stellaria media); experiment: Test C postemergence, plant response rating; settings: Stellaria media, post-emergence
Procedure, shortened: (§2)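 Preemergence: seeds sown in loam–sand blend or silt loam and sprayed with test chemicals in a non-phytotoxic surfactant-containing solvent. Postemergence: potted plants at 2–18 cm (1–4-leaf stage) sprayed with the same formulation. After 13–15 d in greenhouse, visual rating versus controls on 0 (no effect) to 100 (complete control) scale.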

corn (Zea mays) = experiment: Test C postemergence, plant response rating; settings: Zea mays, post-emergence
Procedure, shortened: as §2

[8] = tested on: crabgrass, large (large crabgrass, Digitaria sanguinalis); experiment: Test C postemergence, plant response rating; settings: Digitaria sanguinalis, post-emergence
Procedure, shortened: as §2

[9] = tested on: galium (catchweed bedstraw, Galium aparine); experiment: Test C postemergence, plant response rating; settings: Galium, post-emergence
Procedure, shortened: as §2

kochia (Kochia scoparia) [10] = experiment: Test C postemergence, plant response rating; settings: Bassia scoparia, post-emergence
Procedure, shortened: as §2

[11] = tested on: lambsquarters (Chenopodium album); experiment: Test C postemergence, plant response rating; settings: Chenopodium album, post-emergence
Procedure, shortened: as §2

[12] = tested on: nutsedge, yellow (yellow nutsedge, Cyperus esculentus); experiment: Test C postemergence, plant response rating; settings: Cyperus, post-emergence
Procedure, shortened: as §2

[13] = tested on: oat, wild (wild oat Avena fatua); experiment: Test C postemergence, plant response rating; settings: Avena fatua, post-emergence
Procedure, shortened: as §2

[14] = tested on: ragweed (common ragweed, Ambrosia elatior); experiment: Test C postemergence, plant response rating; settings: Ambrosia artemisiifolia, post-emergence
Procedure, shortened: as §2

[15] = tested on: ryegrass, Italian (Italian ryegrass, Lolium multiflorum); experiment: Test C postemergence, plant response rating; settings: Lolium multiflorum, post-emergence
Procedure, shortened: as §2

soybean (Glycine max) = experiment: Test C postemergence, plant response rating; settings: Glycine max, post-emergence
Procedure, shortened: as §2

[16] = 62 g ai/ha, scale 0 to 100 (0 no effect, 100 complete control)
[17] = 125 g ai/ha, scale 0 to 100 (0 no effect, 100 complete control)

Compound `O=C(OCCC(F)(F)F)c1c(Cl)cccc1Oc1ncc(Cl)cn1` [Compound 15, 3,3,3-trifluoropropyl 2-chloro-6-[(5-chloro-2-pyrimidinyl)oxy]benzoate] has a pest or weed control at 125 g/ha ([1]; 125 g ai/ha) of 40%, a pest or weed control at 500 g/ha ([1]; 500 g ai/ha) of 90% and a pest or weed control at 125 g/ha ([2]; 125 g ai/ha) of 100%. It also gave a pest or weed control at 500 g/ha ([2]; 500 g ai/ha) of 100%, a pest or weed control at 125 g/ha ([3]; 125 g ai/ha) of 100% and a pest or weed control at 500 g/ha ([3]; 500 g ai/ha) of 100%. The pest or weed control at 125 g/ha (kochia (Kochia scoparia) [4]; 125 g ai/ha) was 100%, the pest or weed control at 500 g/ha (kochia (Kochia scoparia) [4]; 500 g ai/ha) was 100% and the pest or weed control at 125 g/ha ([5]; 125 g ai/ha) was 100%. It also gave a pest or weed control at 500 g/ha ([5]; 500 g ai/ha) of 100%, a pest or weed control at 125 g/ha ([6]; 125 g ai/ha) of 0% and a pest or weed control at 500 g/ha ([6]; 500 g ai/ha) of 10%. It also gave a pest or weed control at 16 g/ha ([7]; 16 g ai/ha, scale 0 to 100) of 35%, a pest or weed control at 31 g/ha ([7]; 31 g ai/ha, scale 0 to 100) of 80% and a pest or weed control at 62 g/ha [7, 16] of 90%. It also gave a pest or weed control at 125 g/ha [7, 17] of 90%, a Corn plant response rating (crop injury, 0 = no effect, 100 = complete kill) at 16 g/ha (corn (Zea mays); 16 g ai/ha, scale 0 to 100) of 15% and a Corn plant response rating (crop injury, 0 = no effect, 100 = complete kill) at 31 g/ha (corn (Zea mays); 31 g ai/ha, scale 0 to 100) of 10%. It also gave a plant injury at 62 g/ha (corn (Zea mays); [16]) of 20%, a plant injury at 125 g/ha (corn (Zea mays); [17]) of 20% and a pest or weed control at 16 g/ha ([8]; 16 g ai/ha, scale 0 to 100) of 30%. The pest or weed control at 31 g/ha ([8]; 31 g ai/ha, scale 0 to 100) was 20%, the pest or weed control at 62 g/ha [8, 16] was 25% and the pest or weed control at 125 g/ha [8, 17] was 25%. The pest or weed control at 16 g/ha ([9]; 16 g ai/ha, scale 0 to 100) was 70%, the pest or weed control at 31 g/ha ([9]; 31 g ai/ha, scale 0 to 100) was 60% and the pest or weed control at 62 g/ha [9, 16] was 95%. The pest or weed control at 125 g/ha [9, 17] was 95%, the pest or weed control at 16 g/ha (kochia (Kochia scoparia) [10]; 16 g ai/ha, scale 0 to 100) was 90% and the pest or weed control at 31 g/ha (kochia (Kochia scoparia) [10]; 31 g ai/ha, scale 0 to 100) was 95%. For the same compound, the pest or weed control at 62 g/ha (kochia (Kochia scoparia) [10]; [16]) was 95%, the pest or weed control at 125 g/ha (kochia (Kochia scoparia) [10]; [17]) was 95% and the pest or weed control at 16 g/ha ([11]; 16 g ai/ha, scale 0 to 100) was 70%. It also gave a pest or weed control at 31 g/ha ([11]; 31 g ai/ha, scale 0 to 100) of 75%, a pest or weed control at 62 g/ha [11, 16] of 75% and a pest or weed control at 125 g/ha [11, 17] of 95%. The pest or weed control at 16 g/ha ([12]; 16 g ai/ha, scale 0 to 100) was 0%, the pest or weed control at 31 g/ha ([12]; 31 g ai/ha, scale 0 to 100) was 0% and the pest or weed control at 62 g/ha [12, 16] was 5%. It also gave a pest or weed control at 125 g/ha [12, 17] of 20%, a pest or weed control at 16 g/ha ([13]; 16 g ai/ha, scale 0 to 100) of 5% and a pest or weed control at 31 g/ha ([13]; 31 g ai/ha, scale 0 to 100) of 5%. It also gave a pest or weed control at 62 g/ha [13, 16] of 5%, a pest or weed control at 125 g/ha [13, 17] of 10% and a pest or weed control at 16 g/ha ([14]; 16 g ai/ha, scale 0 to 100) of 30%. It also gave a pest or weed control at 31 g/ha ([14]; 31 g ai/ha, scale 0 to 100) of 40%, a pest or weed control at 62 g/ha [14, 16] of 50% and a pest or weed control at 125 g/ha [14, 17] of 65%. The pest or weed control at 16 g/ha ([15]; 16 g ai/ha, scale 0 to 100) was 0%, the pest or weed control at 31 g/ha ([15]; 31 g ai/ha, scale 0 to 100) was 5% and the pest or weed control at 62 g/ha [15, 16] was 10%. For the same compound, the pest or weed control at 125 g/ha [15, 17] was 5%, the plant injury at 16 g/ha (soybean (Glycine max); 16 g ai/ha, scale 0 to 100) was 45% and the plant injury at 31 g/ha (soybean (Glycine max); 31 g ai/ha, scale 0 to 100) was 45%. The plant injury at 62 g/ha (soybean (Glycine max); [16]) was 80% and the plant injury at 125 g/ha (soybean (Glycine max); [17]) was 90%.
